Earlier results, collected in US20230248791A1, “METHODS FOR MANUFACTURING ANGELICA GIGAS NAKAI EXTRACT USING FERMENTATION BACTERIA” (Sooy-K Co., Ltd., priority 2022, published 2023).

Experiments:
[1] = tested on: ex vivo 3D human skin model
[2] = tested on: microphthalmia-associated transcription factors (MITFs); conditions: via PKA/CREB, p38/ERK MARK, PI3K/Akt/GSK-3β
cyclooxygenase-2 (COX-2) = biological target: T1, cyclooxygenase-2 (COX-2) (Homo sapiens, UniProt P35354)
T1 sequence (P35354 18-604): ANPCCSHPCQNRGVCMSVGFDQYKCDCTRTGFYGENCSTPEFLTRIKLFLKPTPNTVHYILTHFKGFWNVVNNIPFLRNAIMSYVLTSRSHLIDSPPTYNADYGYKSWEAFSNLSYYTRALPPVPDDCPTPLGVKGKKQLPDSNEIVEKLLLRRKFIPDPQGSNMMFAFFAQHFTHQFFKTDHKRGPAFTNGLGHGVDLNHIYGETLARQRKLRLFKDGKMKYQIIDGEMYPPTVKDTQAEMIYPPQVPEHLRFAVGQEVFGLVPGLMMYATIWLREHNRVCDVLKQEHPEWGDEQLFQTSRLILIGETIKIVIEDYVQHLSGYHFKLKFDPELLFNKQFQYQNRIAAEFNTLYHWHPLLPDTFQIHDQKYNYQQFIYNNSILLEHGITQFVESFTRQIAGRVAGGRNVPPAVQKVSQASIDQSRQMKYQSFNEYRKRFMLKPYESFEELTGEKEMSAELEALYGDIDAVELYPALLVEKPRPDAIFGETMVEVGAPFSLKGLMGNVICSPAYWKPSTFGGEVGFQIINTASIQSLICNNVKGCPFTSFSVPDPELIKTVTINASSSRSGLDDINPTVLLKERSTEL

## CC(C)=CC(=O)OC1Cc2cc3ccc(=O)oc3cc2OC1(C)C (stereo not shown) [decursin, 3-methyl-2-butenoic acid 2,2-dimethyl-8-oxo-3,4-dihydro-2H,8H-pyrano[3,2-g]chromen-3-yl ester]
[1]
  melanin synthesis: prevents melanin synthesis
[2]
  effect on MITFs, major transcription factor in melanin synthesis: inhibit
cyclooxygenase-2 (COX-2)
  effect on COX-2 (anti-inflammatory mechanism): inhibiting cyclooxygenase-2 (COX-2)
Human dermal fibroblast
  UVA/UVB-induced skin damage and skin aging: inhibits UVA/UVB-induced skin damage and skin aging
